Source: patent EP0463456A1, “Phosphorus-containing HMG-CoA reductase inhibitors, new intermediates and their use” (E.R. SQUIBB & SONS, INC., priority 1990, dated 1992)

Molecular target: T1, freshly isolated rat hepatocyte suspensions (Rattus norvegicus, UniProt P51639)
T1 sequence (P51639 1-887): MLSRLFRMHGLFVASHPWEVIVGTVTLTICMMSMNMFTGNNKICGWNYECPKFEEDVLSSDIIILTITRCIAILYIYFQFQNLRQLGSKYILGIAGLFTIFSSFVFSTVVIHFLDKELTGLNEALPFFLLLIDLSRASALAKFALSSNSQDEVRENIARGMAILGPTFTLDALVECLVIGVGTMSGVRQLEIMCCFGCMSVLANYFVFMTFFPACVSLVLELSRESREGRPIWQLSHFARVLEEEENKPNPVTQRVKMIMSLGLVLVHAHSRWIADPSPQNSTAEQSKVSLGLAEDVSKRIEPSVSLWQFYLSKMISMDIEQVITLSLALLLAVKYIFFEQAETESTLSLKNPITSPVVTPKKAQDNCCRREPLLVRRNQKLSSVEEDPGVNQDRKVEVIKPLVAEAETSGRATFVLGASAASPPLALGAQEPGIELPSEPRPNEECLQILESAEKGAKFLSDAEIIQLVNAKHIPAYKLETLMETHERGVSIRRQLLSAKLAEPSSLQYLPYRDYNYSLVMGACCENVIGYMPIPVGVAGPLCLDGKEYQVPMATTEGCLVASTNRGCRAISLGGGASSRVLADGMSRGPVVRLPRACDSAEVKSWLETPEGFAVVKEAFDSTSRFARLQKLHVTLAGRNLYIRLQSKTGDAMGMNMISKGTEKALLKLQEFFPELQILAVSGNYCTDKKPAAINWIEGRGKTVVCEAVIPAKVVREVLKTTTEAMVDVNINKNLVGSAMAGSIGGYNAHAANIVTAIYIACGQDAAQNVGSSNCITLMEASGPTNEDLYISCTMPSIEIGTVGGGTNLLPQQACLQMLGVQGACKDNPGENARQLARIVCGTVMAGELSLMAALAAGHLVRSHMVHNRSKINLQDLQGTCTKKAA
Assay: Cholesterol Synthesis in Freshly Isolated Rat Hepatocytes (14C-acetate incorporation into cholesterol)
Type: cell-based
Details: inhibition of 14C-acetate incorporation into cholesterol; 2.0 hours at 37° C; read-out: Hepatocytes 150
Method: 2) Cholesterol Synthesis in Freshly Isolated Rat Hepatocytes […]
a. Isolation of Rat Hepatocytes
Sprague Dawley rats (180-220 grams) are anesthetized with Nembutol (50 mg/kg). The abdomen is opened and the first branch of the portal vein is tied closed. Heparin (100-200 units) is injected directly into the abdominal vena cava. A single closing suture is placed on the distal section of the portal vein, and the portal vein is canulated between the suture and the first branching vein. The liver is perfused at a rate of 20 ml/minute with prewarmed (37° C), oxygenated buffer A (HBSS without calcium or magnesium containing 0.5 mM EDTA) after severing the vena cava to allow drainage of the effluent. The liver is additionally perfused with 200 ml of prewarmed buffer B (HBSS containing 0.05% bacterial collagenase). […] Pelleted hepatocytes are washed once in Waymouth's medium, counted and assayed for viability by trypan blue exclusion. […]
Lipids are extracted essentially as described by Bligh, E. G. and W. J. Dyer, Can. […] Plates are scanned and counted using a BioScan automated scanning system. Radiolabel in the cholesterol peak (RF 0.28) is determined and expressed at total counts per peak and as a percent of the label in the total lipid extract. […]
Drug effects (% inhibition of cholesterol synthesis) are determined by comparing % of label in cholesterol for control and drug treated cultures. […]

IC50: 0.078 µM
Substance: (S)-4-[[[4-(4-Fluorophenyl)-1,2-bis(1-methylethyl)-5-phenyl-1H-pyrrol-3-yl]-ethynyl]hydroxyphosphinyl]-3-hydroxybutanoic acid, dilithium salt [SQ 34,346]
